The text below walks through data of patent publication US8163909B2, “Substituted hydroxyethyl amine compounds as beta-secretase modulators and methods of use” (Amgen Inc., priority 2007, dated 2012).

The target in one series is CYP2D6 (Homo sapiens, UniProt P10635). Description: CYP2D6 inhibition assay (bufuralol, pooled human liver microsomes). The conditions noted are these: 2D6 IC50 (uM), CYP enzyme inhibition.
Series [1] in a line: Microsomal stability assay, rat liver microsomes.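 Further: rat liver microsomes (0.25 mg/mL) with about 1 µM compound plus 1 mM NADPH, pH 7.4, 37 °C for 30 min, parent left measured by LC-MS/MS against 0 min.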 The conditions noted are these: rat liver microsomal data.
For series [2], the target named is Beta Secretase enzyme (BACE) (Homo sapiens, UniProt P56817). Description: In vitro enzymatic BACE FRET (fluorescence resonance energy transfer) assay.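 Further: fluorescence read after 1 h with 50 nM quenched peptide substrate spanning the BACE cleavage site, in pH 4.2 acetate buffer containing 10% DMSO and nonionic detergent.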 It counts as biochemical. The following applies: BACE enzyme assay, IC50's in uM; read-out: BACE1 FRET assay.
Beta Secretase enzyme (BACE), sequence (P56817 46-501): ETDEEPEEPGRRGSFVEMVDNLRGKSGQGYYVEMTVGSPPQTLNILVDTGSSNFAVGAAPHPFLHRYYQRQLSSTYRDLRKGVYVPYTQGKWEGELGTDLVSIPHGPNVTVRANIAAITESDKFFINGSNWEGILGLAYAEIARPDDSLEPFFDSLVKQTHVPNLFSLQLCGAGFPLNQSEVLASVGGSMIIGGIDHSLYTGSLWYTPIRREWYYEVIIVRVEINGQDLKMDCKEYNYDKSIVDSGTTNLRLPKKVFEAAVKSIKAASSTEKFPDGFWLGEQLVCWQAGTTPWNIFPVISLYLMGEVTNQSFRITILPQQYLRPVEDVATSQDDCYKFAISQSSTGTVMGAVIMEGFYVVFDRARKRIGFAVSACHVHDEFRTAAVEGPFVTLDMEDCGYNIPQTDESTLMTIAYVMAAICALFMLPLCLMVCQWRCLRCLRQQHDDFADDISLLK
A short description of series [3]: Microsomal stability assay, human liver microsomes.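 Further: pooled human liver microsomes at 0.25 mg/mL with 1 µM compound and NADPH at 37 °C, pH 7.4, for 30 min, unchanged parent quantified by LC-MS/MS against the 0 min sample.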 The following applies: human liver microsomal data.
Series [4] concerns Aβ40 in conditioned medium of cells stably expressing Amyloid Precursor Protein (APP). Briefly: In vitro BACE cell-based assay (Aβ40 in conditioned medium, sandwich ELISA).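 Further: compounds added as a dilution series, secreted peptide quantified by europium time-resolved fluorescence readout, potency fitted from percent of control versus compound concentration.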 The conditions noted are these: Homo sapiens, HEK293, HEK cell-based assay, IC50's in uM; read-out: HEK cell assay.
In a further series the target is CYP3A4 (CYP3A) (Homo sapiens, UniProt P08684). Briefly: in vitro. The following applies: microsomes, pH 7.4.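 Further: inhibition of CYP3A-mediated 1-hydroxymidazolam formation after 10 min incubation with NADPH, quantified by HPLC MS relative to metabolite produced without test compound.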
CYP3A4 (CYP3A), sequence (P08684 2-503): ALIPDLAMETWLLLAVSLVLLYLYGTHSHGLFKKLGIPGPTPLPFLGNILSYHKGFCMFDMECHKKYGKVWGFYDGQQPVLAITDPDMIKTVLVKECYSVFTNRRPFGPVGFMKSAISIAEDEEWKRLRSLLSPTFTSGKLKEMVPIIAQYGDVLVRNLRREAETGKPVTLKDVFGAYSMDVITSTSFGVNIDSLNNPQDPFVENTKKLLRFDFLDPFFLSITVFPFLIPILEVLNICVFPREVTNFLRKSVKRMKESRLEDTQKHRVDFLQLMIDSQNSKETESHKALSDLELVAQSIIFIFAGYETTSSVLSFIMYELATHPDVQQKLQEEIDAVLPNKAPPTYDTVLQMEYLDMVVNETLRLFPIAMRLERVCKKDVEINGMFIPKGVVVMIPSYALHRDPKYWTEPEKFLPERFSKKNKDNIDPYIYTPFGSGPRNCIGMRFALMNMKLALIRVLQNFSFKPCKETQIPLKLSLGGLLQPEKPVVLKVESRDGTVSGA

CYP2D6, sequence (P10635 whole entry): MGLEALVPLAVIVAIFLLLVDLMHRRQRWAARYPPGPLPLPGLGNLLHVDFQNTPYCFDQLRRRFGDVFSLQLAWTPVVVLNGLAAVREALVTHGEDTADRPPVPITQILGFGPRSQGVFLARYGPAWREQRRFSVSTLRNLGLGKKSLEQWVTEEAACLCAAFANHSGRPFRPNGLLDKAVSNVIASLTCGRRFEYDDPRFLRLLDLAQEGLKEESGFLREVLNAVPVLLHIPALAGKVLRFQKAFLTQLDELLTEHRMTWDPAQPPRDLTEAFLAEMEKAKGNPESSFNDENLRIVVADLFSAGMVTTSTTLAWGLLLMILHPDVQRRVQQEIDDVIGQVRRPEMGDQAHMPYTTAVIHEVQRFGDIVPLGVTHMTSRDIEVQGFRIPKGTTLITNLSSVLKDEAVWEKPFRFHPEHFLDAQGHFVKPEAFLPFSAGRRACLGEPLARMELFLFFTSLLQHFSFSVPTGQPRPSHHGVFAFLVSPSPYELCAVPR

Regarding `COC(OC)C(=O)N[C@@H](Cc1cccc(C#N)c1)[C@H](O)CN[C@H]1CC2(CCC2)Oc2ncc(CC(C)(C)C)cc21` [compound 798], the IC50 came out at 4.7 µM on CYP2D6, 0.006 µM in series [2], 0.005 µM in series [4] and 500 nM on CYP3A4 (CYP3A). For the same compound, the “RLM” value in series [1] stood at 423 µL/min/mg. Also, the “HLM” value in series [3] came out at 468 µL/min/mg.
On to `COCC(=O)N[C@@H](Cc1cc(F)cc(Cl)c1)[C@H](O)CN[C@H]1CC2(CCC2)Oc2ncc(CC(C)(F)F)cc21` [compound 799], for which the IC50 is 4.95 µM against CYP2D6, 0.008 µM in series [2], 0.019 µM in series [4] and 500 nM against CYP3A4 (CYP3A). Besides, in series [1], the “RLM” value is 236.5 µL/min/mg. The “HLM” value in series [3] was determined as 663 µL/min/mg.
As to `COCC(=O)N[C@@H](Cc1cccc(Br)c1)[C@H](O)CN[C@H]1CC2(CCC2)Oc2ncc(CC(C)C)cc21` [compound 800], the IC50 at CYP2D6 turned out to be 1.4 µM; in series [2] it was 0.004 µM; in series [4], 0.013 µM; against CYP3A4 (CYP3A) it was 200 nM. Besides, in series [1], the “RLM” value was 459 µL/min/mg. For the same compound, in series [3], the “HLM” value was 921 µL/min/mg.
Take `CO[C@H](C)C(=O)N[C@@H](Cc1cccc(Br)c1)[C@H](O)CN[C@H]1CC2(CCC2)Oc2ncc(CC(C)C)cc21` [compound 801]: the IC50 on CYP2D6 came out at 3.8 µM; in series [2], 0.016 µM; in series [4] it was 0.118 µM; against CYP3A4 (CYP3A), 300 nM. Moreover, in series [1], the “RLM” value came out at 644 µL/min/mg. Further, in series [3], the “HLM” value was 399 µL/min/mg.
`CC#Cc1cccc(C[C@H](NC(=O)COC)[C@H](O)CN[C@H]2CC3(CCC3)Oc3ncc(CC(C)C)cc32)c1` [compound 802]: the IC50 worked out at 2.15 µM on CYP2D6, 0.005 µM in series [2], 0.032 µM in series [4] and 100 nM against CYP3A4 (CYP3A). Further, the “RLM” value in series [1] is 191 µL/min/mg. Besides, the “HLM” value in series [3] came to 60.5 µL/min/mg.
With `COCC(=O)N[C@@H](Cc1cccc(-c2ncco2)c1)[C@H](O)CN[C@H]1CC2(CCC2)Oc2ncc(CC(C)C)cc21` [compound 804, N-((1S,2R)-2-hydroxy-3-(((4′S)-6′-(2-methylpropyl)-3′,4′-dihydrospiro[cyclobutane-1,2′-pyrano[2,3-b]pyridin]-4′-yl)amino)-1-(3-(1,3-oxazol-2-yl)benzyl)propyl)-2-methoxyacetamide], the IC50 on CYP2D6 was determined as 2.5 µM; in series [2], 0.009 µM; in series [4], 0.03 µM; at CYP3A4 (CYP3A), 200 nM. The “RLM” value in series [1] is 43 µL/min/mg. Further, the “HLM” value in series [3] was 61 µL/min/mg.
Turning to `CC#Cc1ccc2c(c1)[C@@H](NC[C@@H](O)[C@H](Cc1cc(F)cc(-c3nccs3)c1)NC(=O)COC)CC1(CCC1)O2` [compound 806], the IC50 was determined as 0.6 µM on CYP2D6, 0.669 µM in series [2], 4.15 µM in series [4] and 200 nM against CYP3A4 (CYP3A). Besides, in series [1], the “RLM” value is 92 µL/min/mg. For the same compound, the “HLM” value in series [3] turned out to be 61 µL/min/mg.
For the compound `CCO[C@H](C)C(=O)N[C@@H](Cc1ccc2c(c1)OCO2)[C@H](O)CN[C@H]1CC2(CCC2)Oc2ncc(CC(C)C)cc21` [compound 808], the IC50 against CYP2D6 was determined as 2.3 µM; in series [2] it was 0.138 µM; in series [4], 0.414 µM; against CYP3A4 (CYP3A) it was 100 nM. Besides, the “RLM” value in series [1] is 179 µL/min/mg. Further, the “HLM” value in series [3] came out at 49 µL/min/mg.
In the case of `CCO[C@@H](C)C(=O)N[C@@H](Cc1ccc2c(c1)OCO2)[C@H](O)CN[C@H]1CC2(CCC2)Oc2ncc(CC(C)C)cc21` [compound 809], the IC50 against CYP2D6 stood at 6.7 µM; in series [2], 0.269 µM; in series [4], 0.513 µM; at CYP3A4 (CYP3A), 200 nM. The “RLM” value in series [1] turned out to be 117 µL/min/mg. In series [3], the “HLM” value came to 33 µL/min/mg.
Take `COCC(=O)N[C@H](Cc1cccc(-c2nccs2)c1)[C@@H](O)CN[C@H]1CC2(CCC2)Oc2ncc(C3CCCC3)cc21` [compound 810]: the IC50 was determined as 0.5 µM on CYP2D6, 4.49 µM in series [2], 1.34 µM in series [4] and 100 nM on CYP3A4 (CYP3A). The “RLM” value in series [1] is 271 µL/min/mg. Also, the “HLM” value in series [3] stood at 274 µL/min/mg.
For `CC#Cc1cnc2c(c1)[C@@H](NC[C@@H](O)[C@H](Cc1cccc(-c3nccs3)c1)NC(=O)COC)CC1(CCC1)O2` [compound 811], the IC50 is 1 µM at CYP2D6, 0.309 µM in series [2], 0.736 µM in series [4] and 300 nM against CYP3A4 (CYP3A). Moreover, in series [1], the “RLM” value was 54 µL/min/mg. Besides, in series [3], the “HLM” value was 36 µL/min/mg.
For the compound `CC#Cc1cnc2c(c1)[C@@H](NC[C@@H](O)[C@H](Cc1cccc(Br)c1)NC(=O)COC)CC1(CCC1)O2` [compound 812], the IC50 is 3 µM at CYP2D6, 0.258 µM in series [2], 0.954 µM in series [4] and 400 nM against CYP3A4 (CYP3A). The “RLM” value in series [1] was determined as 345 µL/min/mg. For the same compound, in series [3], the “HLM” value was 260 µL/min/mg.
As for `COCC(=O)N[C@@H](Cc1cccc(-c2nccs2)c1)[C@H](O)CN[C@H]1CC2(CCC2)Oc2ncc(CC(C)(C)F)cc21` [compound 813, N-((1S,2R)-3-(((4′S)-6′-(2-fluoro-2-methylpropyl)-3′,4′-dihydrospiro[cyclobutane-1,2′-pyrano[2,3-b]pyridin]-4′-yl)amino)-2-hydroxy-1-(3-(1,3-thiazol-2-yl)benzyl)propyl)-2-methoxyacetamide], the IC50 against CYP2D6 came out at 1.1 µM; in series [2], 0.006 µM; in series [4], 0.014 µM; against CYP3A4 (CYP3A), 500 nM. In addition, in series [1], the “RLM” value worked out at 27 µL/min/mg. The “HLM” value in series [3] worked out at 32 µL/min/mg.
As to `COC(OC)C(=O)N[C@@H](Cc1cc(F)cc(-c2nccs2)c1)[C@H](O)CN[C@H]1CC2(CCC2)Oc2ncc(CC(C)(F)F)cc21` [compound 818], the IC50 against CYP2D6 is 2.3 µM; in series [2], 0.013 µM; in series [4], 0.059 µM; against CYP3A4 (CYP3A) it was 600 nM. In series [1], the “RLM” value came out at 46 µL/min/mg. Besides, the “HLM” value in series [3] amounted to 41 µL/min/mg.
For the compound `CC(C)(C)CCC(=O)N[C@@H](Cc1ccccc1)[C@H](O)CN[C@H]1CC2(CCC2)Oc2ncc(CC(C)(C)C)cc21` [compound 819], the IC50 is 2 µM on CYP2D6, 0.013 µM in series [2], 0.074 µM in series [4] and 200 nM on CYP3A4 (CYP3A). Moreover, in series [1], the “RLM” value was found to be 543 µL/min/mg. Moreover, in series [3], the “HLM” value was 736 µL/min/mg.
On to `CO[C@H](C)C(=O)N[C@@H](Cc1cc(F)cc(Cl)c1)[C@H](O)CN[C@H]1CC2(CCC2)Oc2ncc(CC(C)(F)F)cc21` [compound 820], for which the IC50 on CYP2D6 is 3.8 µM; in series [2] it was 0.022 µM; in series [4] it was 0.021 µM; against CYP3A4 (CYP3A), 300 nM. Besides, the “RLM” value in series [1] is 324 µL/min/mg. For the same compound, in series [3], the “HLM” value amounted to 682 µL/min/mg.
As to `C#Cc1cccc(C[C@H](NC(=O)COC)[C@H](O)CN[C@H]2C[C@@]3(CCOC3)Oc3ncc(CC(C)(C)C)cc32)c1` [compound 825, N-((1S,2R)-3-(((3S,4′S)-6′-(2,2-dimethylpropyl)-3′,4,4′,5-tetrahydrospiro[furan-3,2′-pyrano[2,3-b]pyridin]-4′-yl)amino)-1-(3-ethynylbenzyl)-2-hydroxypropyl)-2-methoxyacetamide], the IC50 is 7.3 µM on CYP2D6, 0.005 µM in series [2], 0.009 µM in series [4] and 100 nM against CYP3A4 (CYP3A). Moreover, the “RLM” value in series [1] is 85 µL/min/mg. Further, in series [3], the “HLM” value came to 17 µL/min/mg.
In the case of `COCC(=O)N[C@@H](Cc1cccc(-c2nccs2)c1)[C@H](O)CN[C@@H]1C[C@@]2(CCOC2)Oc2ncc(CC(C)(C)C)cc21` [compound 827, N-((1S,2R)-3-(((3S,4′R)-6′-(2,2-dimethylpropyl)-3′,4,4′,5-tetrahydrospiro[furan-3,2′-pyrano[2,3-b]pyridin]-4′-yl)amino)-2-hydroxy-1-(3-(1,3-thiazol-2-yl)benzyl)propyl)-2-methoxyacetamide], the IC50 came to 2.1 µM against CYP2D6, 0.006 µM in series [2], 0.007 µM in series [4] and 500 nM against CYP3A4 (CYP3A). Moreover, in series [1], the “RLM” value was determined as 197 µL/min/mg. The “HLM” value in series [3] was determined as 97 µL/min/mg.
`C#Cc1cccc(C[C@H](NC(=O)C(OC)OC)[C@H](O)CN[C@H]2CC3(CCC3)Oc3ncc(CC(C)(F)F)cc32)c1` [compound 830]: the IC50 on CYP2D6 was 1.3 µM; in series [2], 0.007 µM; in series [4], 0.023 µM; against CYP3A4 (CYP3A) it was 100 nM. Also, the “RLM” value in series [1] was 35 µL/min/mg. In addition, the “HLM” value in series [3] came to 28 µL/min/mg.
With `C#Cc1cccc(C[C@H](NC(=O)COC)[C@H](O)CN[C@H]2CC3(CCC3)Oc3ncc(CC(C)(C)C(F)(F)F)cc32)c1` [compound 838], the IC50 against CYP2D6 was 2 µM; in series [2], 0.01 µM; in series [4], 0.028 µM; at CYP3A4 (CYP3A), 100 nM. The “RLM” value in series [1] turned out to be 54 µL/min/mg. The “HLM” value in series [3] amounted to 34 µL/min/mg.
Take `COCC(=O)N[C@@H](Cc1cc(-c2nccs2)cc(-c2nccs2)c1)[C@H](O)CN[C@H]1CC2(CCC2)Oc2ncc(CC(C)(C)C)cc21` [compound 839]: the IC50 is 0.4 µM at CYP2D6, 0.258 µM in series [2], 0.477 µM in series [4] and 100 nM at CYP3A4 (CYP3A). The “RLM” value in series [1] was determined as 57 µL/min/mg. Further, the “HLM” value in series [3] was 62 µL/min/mg.
